Test results taken from US20250171437A1 (Agios Pharmaceuticals,Inc., priority 2022, published 2025).

biological target: T1, human PAH with the R408W mutation (A375 R408W cells) (Homo sapiens, UniProt P00439, R408W); assay: Cell Based Phenylalanine Flux Assay; details: A375 R408W cells; 24 hrs with compound, then 20 μM sepiapterin and 800 μM 13C9,15N-Phenylalanine for 4 hours; 13C-Tyrosine by LC-MS; average where tested multiple times
T1 construct: expressed in transfected cells
T1 sequence (P00439 1-452 R408W): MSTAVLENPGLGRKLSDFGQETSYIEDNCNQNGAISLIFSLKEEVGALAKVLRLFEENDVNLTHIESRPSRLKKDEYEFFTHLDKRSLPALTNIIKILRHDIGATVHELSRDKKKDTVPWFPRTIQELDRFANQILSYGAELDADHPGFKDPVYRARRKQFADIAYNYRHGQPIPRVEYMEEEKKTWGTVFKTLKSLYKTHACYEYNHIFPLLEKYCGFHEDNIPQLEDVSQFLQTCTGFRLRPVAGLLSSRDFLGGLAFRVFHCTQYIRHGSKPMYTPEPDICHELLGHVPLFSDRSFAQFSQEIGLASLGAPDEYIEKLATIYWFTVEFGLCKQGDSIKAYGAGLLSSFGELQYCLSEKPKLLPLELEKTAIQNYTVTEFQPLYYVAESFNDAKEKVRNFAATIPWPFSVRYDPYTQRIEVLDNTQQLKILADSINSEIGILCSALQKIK
In short: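 LC-MS quantitation of 13C-tyrosine in media gave AC50 values. Stable A375 R408W PAH cells were preincubated 24 h with compound, then fed 800 μM labelled Phe plus 20 μM sepiapterin for 4 h. Dose curves were 10-point, tested in duplicate, averaged over repeat runs.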

Compared with `Cc1ccc2nc([C@H]3c4nc[nH]c4CCN3C(=O)c3nnc(-c4ccccn4)o3)oc2c1` [Example 102, (R)-(4-(6-methylbenzo[d]oxazol-2-yl)-6,7-dihydro-1H-imidazo[4,5-c]pyridin-5(4H)-yl)(5-(pyridin-2-yl)-1,3,4-oxadiazol-2-yl)methanone], `O=C(c1nnc(-c2ccccn2)o1)N1CCc2[nH]cnc2[C@@H]1c1nc2cccc(C(F)(F)F)c2o1` [Example 837, (R)-(5-(pyridin-2-yl)-1,3,4-oxadiazol-2-yl)(4-(7-(trifluoromethyl)benzo[d]oxazol-2-yl)-6,7-dihydro-1H-imidazo[4,5-c]pyridin-5(4H)-yl)methanone] is lower in AC50: 1000 to 5000 nM for the first, 500 to 1000 nM for the second.

`O=C(c1ocnc1C(F)F)N1CCc2[nH]cnc2[C@H]1c1nc2cc(F)cc(F)c2o1` [Example 309, (S)-(4-(5,7-difluorobenzo[d]oxazol-2-yl)-6,7-dihydro-1H-imidazo[4,5-c]pyridin-5(4H)-yl)(4-(difluoromethyl)oxazol-5-yl)methanone] and `O=C(c1ocnc1C(F)F)N1CCc2[nH]cnc2[C@H]1c1nc2c(F)ccc(F)c2o1` [Example 373, (S)-(4-(4,7-difluorobenzo[d]oxazol-2-yl)-6,7-dihydro-1H-imidazo[4,5-c]pyridin-5(4H)-yl)(4-(difluoromethyl)oxazol-5-yl)methanone] cannot be ordered by AC50: ≤ 500 nM for the first, ≤ 500 nM for the second.

`O=C(c1ocnc1C(F)(F)F)N1Cc2[nH]cnc2[C@@H]1c1nc2ccccc2o1` [Example 943, (R)-(4-(benzo[d]oxazol-2-yl)-4,6-dihydropyrrolo[3,4-d]imidazol-5(1H)-yl)(4-(trifluoromethyl)oxazol-5-yl)methanone] and `O=C(c1ocnc1C(F)F)N1Cc2[nH]cnc2[C@H]1c1nc2ccccc2o1` [Example 921, (S)-(4-(benzo[d]oxazol-2-yl)-4,6-dihydropyrrolo[3,4-d]imidazol-5(1H)-yl)(4-(difluoromethyl)oxazol-5-yl)methanone] fall in the same range of AC50: 1000 to 5000 nM for the first, 1000 to 5000 nM for the second.

`O=C(c1ccnn1C1CC1)N1CCc2[nH]cnc2[C@H]1c1nc2cccc(F)c2o1` [Example 727, (S)-(1-cyclopropyl-1H-pyrazol-5-yl)(4-(7-fluorobenzo[d]oxazol-2-yl)-6,7-dihydro-1H-imidazo[4,5-c]pyridin-5(4H)-yl)methanone] and `COCc1ccc2c(C(=O)N3CCc4[nH]cnc4[C@H]3c3nc4cccc(F)c4o3)cnn2c1` [Example 265, (S)-(4-(7-fluorobenzo[d]oxazol-2-yl)-6,7-dihydro-1H-imidazo[4,5-c]pyridin-5(4H)-yl)(6-(methoxymethyl)pyrazolo[1,5-a]pyridin-3-yl)methanone] fall in the same range of AC50: 500 to 1000 nM for the first, 500 to 1000 nM for the second.

First: O=C(c1cnn2cc(N3CCOCC3)c(Cl)cc12)N1CCc2[nH]cnc2[C@H]1c1nc2cc(F)ccc2o1 [Example 175, (S)-(5-chloro-6-morpholinopyrazolo[1,5-a]pyridin-3-yl)(4-(5-fluorobenzo[d]oxazol-2-yl)-6,7-dihydro-1H-imidazo[4,5-c]pyridin-5(4H)-yl)methanone]
Second: Cn1cc(-c2nnc(C(=O)N3CCc4[nH]cnc4[C@@H]3c3nc4cc(F)ccc4o3)o2)cn1 [Example 68, (R)-(4-(5-fluorobenzo[d]oxazol-2-yl)-6,7-dihydro-1H-imidazo[4,5-c]pyridin-5(4H)-yl)(5-(1-methyl-1H-pyrazol-4-yl)-1,3,4-oxadiazol-2-yl)methanone]
The AC50 of the first is lower: 500 to 1000 nM for the first, 1000 to 5000 nM for the second.

`CC(F)(F)c1ncoc1C(=O)N1CCc2[nH]cnc2[C@@H]1c1nc2cc(F)ccc2o1` [Example 154, (R)-(4-(1,1-difluoroethyl)oxazol-5-yl)(4-(5-fluorobenzo[d]oxazol-2-yl)-6,7-dihydro-1H-imidazo[4,5-c]pyridin-5(4H)-yl)methanone] and `O=C(c1ocnc1C(F)(F)F)N1CCc2[nH]cnc2[C@@H]1c1nc2ccc(F)cc2o1` [Example 162, (R)-(4-(6-fluorobenzo[d]oxazol-2-yl)-6,7-dihydro-1H-imidazo[4,5-c]pyridin-5(4H)-yl)(4-(trifluoromethyl)oxazol-5-yl)methanone] fall in the same range of AC50: 1000 to 5000 nM for the first, 1000 to 5000 nM for the second.

`CC(C)(O)c1nc(C(F)F)c(C(=O)N2CCc3[nH]cnc3[C@@H]2c2nc3cccc(OC(F)(F)F)c3o2)o1` [Example 530, (R)-(4-(difluoromethyl)-2-(2-hydroxypropan-2-yl)oxazol-5-yl)(4-(7-(trifluoromethoxy)benzo[d]oxazol-2-yl)-6,7-dihydro-1H-imidazo[4,5-c]pyridin-5(4H)-yl)methanone] and `CC(C)(O)c1nc(C(F)F)c(C(=O)N2CCc3[nH]cnc3[C@@H]2c2nc3cccc(F)c3o2)o1` [Example 194, (R)-(4-(difluoromethyl)-2-(2-hydroxypropan-2-yl)oxazol-5-yl)(4-(7-fluorobenzo[d]oxazol-2-yl)-6,7-dihydro-1H-imidazo[4,5-c]pyridin-5(4H)-yl)methanone] cannot be ordered by AC50: 500 to 1000 nM for the first, ≤ 500 nM for the second.

`Cn1cc(-c2ccc3c(C(=O)N4CCc5[nH]cnc5[C@@H]4c4nc5c(F)cccc5o4)cnn3c2)cn1` [Example 542, (R)-(4-(4-fluorobenzo[d]oxazol-2-yl)-6,7-dihydro-1H-imidazo[4,5-c]pyridin-5(4H)-yl)(6-(1-methyl-1H-pyrazol-4-yl)pyrazolo[1,5-a]pyridin-3-yl)methanone] and `Cn1cc(-c2ncc(C(=O)N3CCc4[nH]cnc4[C@@H]3c3nc4cc(F)ccc4o3)s2)cn1` [Example 10, (R)-(4-(5-fluorobenzo[d]oxazol-2-yl)-6,7-dihydro-1H-imidazo[4,5-c]pyridin-5(4H)-yl)(2-(1-methyl-1H-pyrazol-4-yl)thiazol-5-yl)methanone] fall in the same range of AC50: 1000 to 5000 nM for the first, 1000 to 5000 nM for the second.

`Cc1cccc2nc([C@H]3c4nc[nH]c4CCN3C(=O)c3ocnc3C(F)F)oc12` [Example 394, (R)-(4-(difluoromethyl)oxazol-5-yl)(4-(7-methylbenzo[d]oxazol-2-yl)-6,7-dihydro-1H-imidazo[4,5-c]pyridin-5(4H)-yl)methanone] and `O=C(c1ocnc1C(F)F)N1CCc2[nH]cnc2[C@@H]1c1nc2cc(C(F)(F)F)ccc2o1` [Example 330, (R)-(4-(difluoromethyl)oxazol-5-yl)(4-(5-(trifluoromethyl)benzo[d]oxazol-2-yl)-6,7-dihydro-1H-imidazo[4,5-c]pyridin-5(4H)-yl)methanone] cannot be ordered by AC50: 500 to 1000 nM for the first, ≤ 500 nM for the second.

`Cn1cncc1-c1nc(C(F)F)c(C(=O)N2CCc3[nH]cnc3[C@H]2c2nc3cccc(F)c3o2)o1` [Example 692, (S)-(4-(difluoromethyl)-2-(1-methyl-1H-imidazol-5-yl)oxazol-5-yl)(4-(7-fluorobenzo[d]oxazol-2-yl)-6,7-dihydro-1H-imidazo[4,5-c]pyridin-5(4H)-yl)methanone] and `O=C(c1oc(-c2ccccn2)nc1C(F)(F)F)N1CCc2[nH]cnc2[C@@H]1c1nc2cccc(F)c2o1` [Example 637, (R)-(4-(7-fluorobenzo[d]oxazol-2-yl)-6,7-dihydro-1H-imidazo[4,5-c]pyridin-5(4H)-yl)(2-(pyridin-2-yl)-4-(trifluoromethyl)oxazol-5-yl)methanone] cannot be ordered by AC50: ≤ 500 nM for the first, ≤ 500 nM for the second.

First: O=C(c1ocnc1C(F)F)N1CCc2[nH]cnc2[C@H]1c1nc2c(F)c(F)ccc2o1 [Example 350, (S)-(4-(4,5-difluorobenzo[d]oxazol-2-yl)-6,7-dihydro-1H-imidazo[4,5-c]pyridin-5(4H)-yl)(4-(difluoromethyl)oxazol-5-yl)methanone]
Second: O=C(c1ccnn1C(F)F)N1CCc2[nH]cnc2[C@@H]1c1nc2ccccc2o1 [Example 564, (R)-(4-(benzo[d]oxazol-2-yl)-6,7-dihydro-1H-imidazo[4,5-c]pyridin-5(4H)-yl)(1-(difluoromethyl)-1H-pyrazol-5-yl)methanone]
The AC50 of the first is lower: ≤ 500 nM for the first, 1000 to 5000 nM for the second.

`O=C(c1nnc(-c2ccc(OC(F)(F)F)cn2)o1)N1CCc2[nH]cnc2[C@@H]1c1nc2cc(F)ccc2o1` [Example 672, (R)-(4-(5-fluorobenzo[d]oxazol-2-yl)-6,7-dihydro-1H-imidazo[4,5-c]pyridin-5(4H)-yl)(5-(5-(trifluoromethoxy)pyridin-2-yl)-1,3,4-oxadiazol-2-yl)methanone] showed an AC50 of 1000 to 5000 nM.

same assay, conditions: A375 cells expressing R408W PAH; 24 hrs with compound, then 20 μM sepiapterin and 800 μM 13C9,15N-Phenylalanine for 4 hours; 13C-Tyrosine by LC-MS; average where tested multiple times

`O=C(Cc1cnn2ccccc12)N1CCc2[nH]cnc2C1c1nc2cc(F)ccc2o1` (stereo not drawn) and `O=C(c1ccn[nH]1)N1CCc2[nH]cnc2C1c1nc2cc(F)ccc2o1` (stereo not drawn) cannot be ordered by AC50: ≥ 5000 nM for the first, ≥ 5000 nM for the second.

`Cn1nc(C(C)(C)O)nc1C(=O)N1CCc2[nH]cnc2C1c1nc2cccc(F)c2o1` (stereo not drawn) and `CC(C)(O)c1noc(C(=O)N2CCc3[nH]cnc3C2c2nc3c(F)cccc3o2)n1` (stereo not drawn) cannot be ordered by AC50: ≥ 5000 nM for the first, ≥ 5000 nM for the second.

`Cn1cc(-c2nnc(C(=O)N3CCc4[nH]cnc4C3c3nc4cc(C(F)(F)F)ccc4o3)o2)cn1` (stereo not drawn) and `Cn1ncnc1C(=O)N1CCc2[nH]cnc2C1c1nc2ccc(F)cc2o1` (stereo not drawn) fall in the same range of AC50: 1000 to 5000 nM for the first, 1000 to 5000 nM for the second.

`O=C(c1cnco1)N1CCc2[nH]cnc2C1c1nc2ccc(Br)cc2o1` (stereo not drawn) and `Cc1cccc2nc(C3c4nc[nH]c4CCN3C(=O)c3ccnn3C(C)C)oc12` (stereo not drawn) cannot be ordered by AC50: ≥ 5000 nM for the first, ≥ 5000 nM for the second.

`COc1cccc2nc(C3c4nc[nH]c4CCN3C(=O)c3cc(C(C)(C)C)nn3C)oc12` (stereo not drawn) and `CC(C)(O)c1cc(C(=O)N2CCc3[nH]cnc3C2c2nc3c(F)cccc3o2)no1` (stereo not drawn) cannot be ordered by AC50: ≥ 5000 nM for the first, 1000 to 5000 nM for the second.
